What was measured:
[1] = test system: RAS-mutant cancer cell lines pERK; experiment: Phospho-ERK inhibition in a panel of cancer cell lines (AlphaLISA); format: cell-based, human
Procedure: All cancer cell lines (A375, A101D, A2058, RKO, HT29 SK-MEL 30, IPC298, HepG2, HCT-116, Lovo, SW620, SW480, NCI-H358, NCI-H2122, Calu-6, NCIH2087, NCIH1755, NCIH1666 and Mewo) were obtained from ATCC and cultured in RPMI-1640 medium (Gibco) supplemented with 5% heat inactivated fetal bovine serum (FBS, Wisent) at 37° C. under 5% CO2. Cells were maintained in T175 flasks (Greiner). They were passaged by removing the culture medium, washing once in 10 mL of room temperature Phosphate Buffered Saline (PBS; Wisent) and incubating at 37° C. with 2 mL of 0.05% Trypsin (Thermo-Fisher). […]
After treatment, media was removed, and cells were lysed in 50 μL of 1× AlphaScreen Ultra Lysis Buffer (Perkin Elmer). […] After completion of the reactions, the signals were recorded on an EnVision plate reader (Perkin Elmer) using built in AlphaLISA® settings.
The effect of each compound dilution on the pERK signal was expressed in % inhibition and calculated as follows. […]
The ability of each compound to inhibit pERK signal was expressed as an IC50 value obtained by plotting the inhibition values for each data point of a dilution series and fitting the obtained curves using a log(agonist) versus response−variable slope (four parameters) function using GraphPadPrism (V7.0). […]

[2] = test system: RAS-mutant HCT-116 cells pERK/pMEK; experiment: Immunoblot analysis of pERK and pMEK; format: cell-based, human; details: FIG. 2, 1 h treatment
Procedure: For immunoblotting analysis, 500,000 HCT-116 cells were plated in 1 mL of complete RPMI-1640 growth medium in 24-well flat-bottomed transparent dishes (Costar). Cells were maintained overnight at 37° C. under 5% CO2 before treatment with compounds' dilution series for one hour. Cells were then washed once in PBS and lized in 250 μL of Igepal Lysis Buffer (50 mM Tris-HCl pH 7.5, 150 mM NaCl, 1% Igepal-CA630, 1 mM EDTA, 10% Glycerol) supplemented with Leupeptin, Aprotinin, PMSF, phosphatase inhibitor cocktail (Sigma) and Na3VO4 at 4° C. for 15 minutes with gentle rocking. Cell extracts were then cleared by centrifugation at 20,000 g at 4° C. for 10 minutes. Cleared lysates were then transferred on ice in fresh tubes and then boiled in sample loading buffer (100 mM Tris-HCl pH 6.8, 4% SDS, 0.2% bromophenol blue, 20% glycerol, 200 mM β-mercaptoethanol) for 5 minutes prior to fractionation by SDS-PAGE and transfer to nitrocellulose membranes (PALL). […]

SMILES	paradoxical induction of the pathway (pERK) ([1]; RAS-mutant cell lines of Table D)	YMIN of pERK IC50 curves ([1]; in 11 of the 13 RAS-mutant cell lines tested) [%]	paradoxical induction of pERK or pMEK signaling (immunoblot) [2]
Cc1ccc2c(Nc3cccc(Cl)c3F)nccc2c1NC(=O)c1csc2c(N)ncnc12 [Belvarafenib, reference compound]	mild to strong induction of the pathway	< −30	–
Nc1cccc2c1ncn2-c1ncc2ncnc(Nc3c(F)ccc(NS(=O)(=O)c4cccc(Cl)c4Cl)c3F)c2n1 [Example 80]	–	–	does not induce paradoxical induction of pERK or pMEK signaling

— US20240239801A1, “PYRIMIDO[5,4,D]PYRIMIDINE COMPOUNDS, COMPOSITIONS COMPRISING THEM AND USES THEREOF” (Université de Montréal, priority 2021, published 2024)
